Measured values: patent US9505794B2, “Ruthenium (II) complexes, preparation and uses thereof” (priority 2014, dated 2016)

Key:
calf-thymus DNA (CT-DNA) = test: Isothermal titration calorimetry (ITC) binding to CT-DNA; settings: for ΔG / ΔH / −TΔS: Tris-HCl buffer pH=7.4, 25° C; for N [bp]: one set of site binding model
Procedure: Relative binding affinity of complexes 1, 2, and 3 towards calf-thymus DNA (CT-DNA) were evaluated using isothermal titration calorimetry (ITC) (FIG. 20). Association constants and thermodynamic parameters (Table 4) clearly reveal that the binding affinities for complexes 1 and 2
ITC experiments were performed with the Microcal iTC200. CT-DNA (0.1 mmol) and complexes 1 (5 mmol), 2 (5 mmol) and 3 (5 mmol) were used for these experiments. All titrations were conducted in Tris-HCl buffer (5 mmol Tris and 25 mmol NaCl), pH=7.4 at 25° C. In each titration CT-DNA was loaded into the cell and 1 or 2 or 3 were taken into the syringe. Aliquot of 2 μL of compounds were injected into the cell containing DNA. In each experiment, the raw isotherms were corrected for heat of dilution by subtracting the isotherms representing the compounds injected into the Tris-HCl buffer. The resulting isotherms were fitted with the one set of site binding model provided with Microcal iTC200. (Refer FIG. 21)

[1] = Partition coefficient (log P), shake-flask method, n-octanol/water; settings: for log P: values of text and unnumbered table; for LogP: values of Table 2
Procedure: Partition coefficients (log P) for these three complexes were evaluated by shake-flask method and these were correlated to the lipophilicity of respective complexes.
n-Octanol saturated water and water saturated octanol was obtained using Millipore water stirred with n-octanol for 24 h before the two layers were separated by centrifugation (3000 rpm, 5 min). The chloride salts of complex 1 and 2 were dissolved in n-octanol saturated water giving concentrations ranging from 0.5 to 3.0 mmol. This was then mixed with water saturated n-octanol in the ratio of 1:1 (v/v). Resulting solvent mixtures were vertexed for 30 min at room temperature, and then were subjected to centrifugation (3000 rpm, 5 min) to get two distinct separate layers. Samples from each layer were obtained using a fine-gauge needle and the absorbance of respective complex in each phase determined using UV-Vis spectroscopy.

MCF-7 cell line = test: Cellular uptake and quantification of Ru by MP-AES; format: cell-based; settings: MCF-7, 50 μM, 24 h, 37° C
Procedure: Cellular accumulation studies for complexes 1, 2, and 3 were conducted on the MCF-7 cell line. Briefly, 2.5×10^5-1×10^6 cells were seeded on a petridish; the metal complexes were then added to give final concentrations of 50 μM and allowed a further 24 h of drug exposure at 37° C. After this time, cells were treated with trypsin, counted using haemocytometer, and cells collected were digested overnight in concentrated nitric acid (73%) at 60° C.; Samples were made up to exactly 10 mL using deionized water and the amount of ruthenium taken up by the cells was estimated by MP-AES (Microwave Plasma Atomic Emission Spectroscopy), using an Agilent Technologies instrument (Model No: 4100 MP-AES). The solvent used for all MP-AES experiments was double deionized water (DDW). The concentrations used for the calibration curve were in all cases 0, 5, 7.5, 10 ppm. The isotope detected was ^101Ru; readings were made in duplicate (N2 gas mode).

live MCF-7 cells = test: CLSM imaging of live cells, co-staining with ER-Tracker Green; format: cell-based; settings: live MCF-7, 50 μM, 37° C
Procedure: In the light of the negligible toxicity towards MCF-7 cells, the application of the above complexes as potential as imaging agents was explored in live MCF-7 cells by incubating the cells separately with 50 μM of 1, 2, and 3 at 37° C.

PFA fixed MCF-7 cells = test: CLSM imaging of fixed cells, co-staining with DAPI; format: cell-based; settings: fixed MCF-7, excitation 442 nm, emission 620 nm
Procedure: In another embodiment, co-staining experiments were performed with DAPI, a commonly used commercial nuclear staining agent.
To ensure that DAPI had no influence in internalization of the complexes 1 and 2, identical experiments with fixed MCF-7 cells in absence of DAPI were performed (FIG. 22 c) and a distinct red emission were observed from the nucleus. Luminescence intensity profile plots confirmed that the emission was actually from the nucleus.
MCF-7 and HEK293T cells were cultured in DMEM respectively supplemented with 10% FBS and penicillin/streptomycin. Cell lines were maintained at 37° C. in an atmosphere of 5% CO2 and routinely sub-cultured. For CLSM, cell cultures were grown on 6 well plate with coverslips, after 24 hrs of incubation the cells were treated with solutions of 1 or 2 (20 μM,) in serum containing media and incubated for 2 h. After incubation media was removed and cells were washed with 1×PBS buffer and fixed them using paraformaldehyde and stained for confocal microscopy. Nuclear staining was performed by using DAPI. Olympus Fluoview was used to observe the compound staining Compound was excited at 443 nm and emission was detected at 620 nm wavelength.
DAPI was excited by using a 405 nm diode laser and emission detected with a 420-480 nm long-pass band-filter. (FIG. 14, 15, 16, 17)

[2] = Fluorescence quantum yield and luminescence lifetime (TCSPC) in water; format: physicochemical; settings: pure aqueous medium; for τ (luminescence lifetime): excitation 443 nm; for Φf (fluorescence quantum yield): reference Ru(bpy)3Cl2
Source text: UV-Vis spectra were obtained by using a Cary 500 scan UV-Vis-NIR spectrometer. Room temperature emission spectrum was obtained using an Edinburgh instrument Xe-900 spectro fluorometer. The fluorescence quantum yields, Φf were estimated by using equation 1 in water medium using the integrated emission intensity of Ru(bpy)3Cl2 (Φf=0.042 in H2O at RT) as a reference. (FIG. 20)
Luminescent lifetimes were obtained using a Horiba TCSPC (Time Correlated Single Photon Counting) system exciting at 443 nm. 10,000 counts were collected for each lifetime measurement and all measurements were performed in triplicate using DAS software to confirm results. The calculation of the luminescent lifetimes was performed by fitting an exponential decay function to each decay plot to extract the lifetime information using DAS6 fluorescence decay analysis software (FIG. 2).

[3] = Photostability under continuous irradiation by confocal microscopy; format: physicochemical; settings: for reduction of fluorescence intensity upon irradiation: fixed MCF-7, exposure at 442 nm for 300 sec
Source text: In yet another embodiment, photostability of these two complexes 1 & 2 compared with that for DAPI dye by using confocal microscopy.

[4] = test system: nuclear DNA of fixed MCF-7 cells; test: DNase I / RNase A digest experiments (CLSM); format: cell-based; settings: fixed MCF-7 cells pre-treated with DNase I
Procedure: Further, in order to check the preferential binding of these two reagents to nuclear DNA, deoxyribonuclease (DNase I) and ribonuclease (RNase A) digest experiments were carried out. DNase I is an enzyme that catalyzes the hydrolytic cleavage of phosphodiester linkages in the DNA and RNase A is a type of nuclease that catalyzes the degradation of RNA into smaller components. DAPI was used for control experiments.

Compound | ΔG (calf-thymus DNA (CT-DNA)) | ΔH (calf-thymus DNA (CT-DNA)) | −TΔS (calf-thymus DNA (CT-DNA)) | N [bp] (calf-thymus DNA (CT-DNA)) | log P [1] | Ru accumulation (MCF-7 cell line) | extent of cellular uptake (live MCF-7 cells) | intracellular localisation of emission in live cells (live MCF-7 cells) | staining of fixed cells (PFA fixed MCF-7 cells) | τ (luminescence lifetime) [2] | Φf (fluorescence quantum yield) [2] | fluorescence intensity upon continuous irradiation ([3]; fixed MCF-7, at 359 nm for 300 sec) | LogP [1] | intracellular fluorescence intensity from the nucleus after DNase I pre-treatment [4] | reduction of fluorescence intensity upon irradiation [3] | water solubility (Water solubility)
Cc1ccnc(-c2cc(C)ccn2)c1.F[P-](F)(F)(F)(F)F.F[P-](F)(F)(F)(F)F.[Ru+2].c1ccc(-c2ccccn2)nc1.c1ccc(-c2ccccn2)nc1 [Complex 3, [Ru(bpy)2(L3)]2+, reference compound] | −4.52 ± 0.25 Kcal/M^−1 | 0.51 ± 0.25 Kcal/M^−1 | 5.03 Kcal/M^−1l | 0.354 ± 0.14 bp | −1.1 | 0.8 ppm/10^6 cells | less as compared to the complexes 1 and 2 | did not show any such specificity towards lipid dense regions | non-specific staining of cellular compartments | 321 ns | 0.05 |  |  |  |  | 
N=C(N)c1ccc(-c2cc3ccc(C(=N)N)cc3[nH]2)cc1 [DAPI, 4′,6-diamidino-2-phenylindole, reference compound] |  |  |  |  |  |  |  |  |  |  |  | drastically reduced |  |  |  | 
{bis-(2,2′-bpy)-(1-((4′-methyl-[2,2′-bipyridin]-4-yl)methyl)pyrimidine-2,4(1H,3H)-dione)}ruthenium(II) dichloride [Complex 2] | −6.00 ± 0.02 Kcal/M^−1 | 1.47 ± 0.02 Kcal/M^−1 | 7.47 Kcal/M^−1l | 0.98 ± 0.01 bp |  | 2.3 ppm/10^6 cells |  | exactly superimposed with those for ER-Tracker™ Green | as efficient as DAPI in staining the nucleus | 323 ns | 0.050 |  | −1.59 ± 0.09 | significantly reduced | ~20% | highly water soluble
{bis-(2,2′-bpy)-(5-fluoro-1-((4′-methyl-[2,2′-bipyridin]-4-yl)methyl)pyrimidine-2,4(1H,3H)-dione)}ruthenium(II) dichloride [Complex 1] | −6.68 ± 0.41 Kcal/M^−1 | −35.5 ± 0.41 Kcal/M^−1 |  | 0.61 ± 0.0 bp | −0.85 | 1.5 ppm/10^6 cells |  | exactly superimposed with those for ER-Tracker™ Green | as efficient as DAPI in staining the nucleus | 336 ns | 0.048 |  | −0.99 ± 0.05 | significantly reduced | ~20% | highly water soluble
